# “And” between values parts separate entries of the source, which are not always exact repeats. Equal values may be shown once. Toxic doses and inconclusive results are not listed.
# Test system: P388 leukemia ip, CD2F1 mice, survival T/C
# Experiment: NCI In Vivo Anticancer Drug Screen. Data for tumor model P388 Leukemia (intraperitoneal) in CD2F1 (CDF1) mice
# Settings: endpoint: median survival time, higher = longer survival
# In short: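 Mice carrying the transplanted tumor received test compound or vehicle. Survival was recorded in each group, and the value is the treated-group measurement divided by that of the vehicle-treated control group.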
# [1] = dose: 50.0 mg/kg/injection, schedule: Q01DX005 (ip), vehicle: saline with Tween-80
# [2] = dose: 100.0 mg/kg/injection, schedule: Q01DX005 (ip), vehicle: saline with Tween-80
# [3] = dose: 25.0 mg/kg/injection, schedule: Q01DX005 (ip), vehicle: Klucel (hydroxypropylcellulose) (HPC)
# [4] = dose: 50.0 mg/kg/injection, schedule: Q01DX005 (ip), vehicle: Klucel (hydroxypropylcellulose) (HPC)
# [5] = dose: 100.0 mg/kg/injection, schedule: Q01DX005 (ip), vehicle: Klucel (hydroxypropylcellulose) (HPC)
# [6] = dose: 200.0 mg/kg/injection, schedule: Q01DX005 (ip), vehicle: Klucel (hydroxypropylcellulose) (HPC)
# [7] = dose: 100.0 mg/kg/injection, schedule: Q01DX009 (ip), vehicle: saline
# [8] = dose: 200.0 mg/kg/injection, schedule: Q01DX009 (ip), vehicle: saline
# [9] = dose: 25.0 mg/kg/injection, schedule: Q01DX005 (ip), vehicle: saline with Tween-80
# [10] = dose: 50.0 mg/kg/injection, schedule: Q01DX009 (ip), vehicle: saline
# [11] = dose: 200.0 mg/kg/injection, schedule: Q01DX005 (ip), vehicle: saline with Tween-80
# [12] = dose: 100.0 mg/kg/injection, schedule: Q01DX009 (ip), vehicle: Klucel (hydroxypropylcellulose) (HPC)
# [13] = dose: 200.0 mg/kg/injection, schedule: Q01DX009 (ip), vehicle: Klucel (hydroxypropylcellulose) (HPC)
# [14] = dose: 60.0 mg/kg/injection, schedule: Q01DX005 (ip), vehicle: Klucel (hydroxypropylcellulose) (HPC)
# [15] = dose: 120.0 mg/kg/injection, schedule: Q01DX005 (ip), vehicle: Klucel (hydroxypropylcellulose) (HPC)
smiles,measurement,setting,value
COC(=O)[C@@]1(O)CC(OC)=CC1=O,T/C,"dose: 5.0 mg/kg/injection, schedule: Q01DX005 (ip), vehicle: Klucel (hydroxypropylcellulose) (HPC)",93 % of control
same,T/C,"dose: 10.0 mg/kg/injection, schedule: Q01DX005 (ip), vehicle: Klucel (hydroxypropylcellulose) (HPC)",95 % of control
same,T/C,"dose: 20.0 mg/kg/injection, schedule: Q01DX005 (ip), vehicle: Klucel (hydroxypropylcellulose) (HPC)",100 % of control
same,T/C,"dose: 40.0 mg/kg/injection, schedule: Q01DX005 (ip), vehicle: Klucel (hydroxypropylcellulose) (HPC)",93 % of control
same,T/C,"dose: 80.0 mg/kg/injection, schedule: Q01DX005 (ip), vehicle: Klucel (hydroxypropylcellulose) (HPC)",98 % of control
CCOC(=O)N(O)c1ccc(C)cc1C,T/C,[1],96 % of control
same,T/C,[2],102 % of control
NC1C(=O)NC(=O)NC1=O,T/C,[3],96 % of control
same,T/C,[4],96 % of control
same,T/C,[5],98 % of control
same,T/C,[6],100 % of control
same,T/C,"dose: 400.0 mg/kg/injection, schedule: Q01DX005 (ip), vehicle: Klucel (hydroxypropylcellulose) (HPC)",105 % of control
COc1ccc(-c2cc(-c3ccccc3)cc(-c3ccc(OC)cc3)n2)cc1,T/C,[4],98 % of control
same,T/C,[5],94 % of control
same,T/C,[6],92 % of control
COc1ccc(SS(=O)c2ccc(C)cc2)cc1 (stereo not given),T/C,"dose: 100.0 mg/kg/injection, schedule: Q01DX001 (ip), vehicle: other",105 % of control
same,T/C,"dose: 200.0 mg/kg/injection, schedule: Q01DX001 (ip), vehicle: other",106 % of control
same,T/C,"dose: 400.0 mg/kg/injection, schedule: Q01DX001 (ip), vehicle: other",111 % of control
CC(C(C(=O)N1CCCCC1)N1CCCCC1)N1CCCCC1 (stereo not given),T/C,[7],99 % of control
same,T/C,[8],87 % of control
same,T/C,"dose: 400.0 mg/kg/injection, schedule: Q01DX009 (ip), vehicle: saline",97 % of control
CCN(CC)CCSCCN(CC)CC,T/C,[9],98 % of control
same,T/C,[1],110 % of control
same,T/C,[2],98 % of control
O=C(NN=C1CCCCC1)C(=O)Nc1cccc(C(F)(F)F)c1,T/C,[4],97 % of control
same,T/C,[5],92 % of control
same,T/C,[6],88 % of control
Nc1ccc2c(=O)[nH]cnc2c1,T/C,"dose: 12.0 mg/kg/injection, schedule: Q01DX005 (ip), vehicle: Klucel (hydroxypropylcellulose) (HPC)",101 % of control
same,T/C,[3],108 % of control
same,T/C,[4],106 % of control and 116 % of control
same,T/C,[5],104 % of control
CCOC(=O)c1ccc(N2C(=O)C3C4C=CC(O4)C3C2=O)cc1 (stereo not given),T/C,"dose: 100.0 mg/kg/injection, schedule: Q04DX003 (ip), vehicle: Klucel (hydroxypropylcellulose) (HPC)",112 % of control
same,T/C,"dose: 200.0 mg/kg/injection, schedule: Q04DX003 (ip), vehicle: Klucel (hydroxypropylcellulose) (HPC)",105 % of control
same,T/C,"dose: 400.0 mg/kg/injection, schedule: Q04DX003 (ip), vehicle: Klucel (hydroxypropylcellulose) (HPC)",111 % of control
CO[C@@]12[C@H](COC(N)=O)C3=C(C(=O)C(C)=C(N)C3=O)N1C[C@H]1[C@@H]2N1C(=O)[C@@H]1N2C(=O)[C@@H](NC(=O)Cc3ccccc3)[C@H]2SC1(C)C,T/C,"dose: 6.25 mg/kg/injection, schedule: Q01DX009 (ip), vehicle: saline",116 % of control
same,T/C,"dose: 12.5 mg/kg/injection, schedule: Q01DX009 (ip), vehicle: saline",155 % of control
same,T/C,"dose: 25.0 mg/kg/injection, schedule: Q01DX009 (ip), vehicle: saline",155 % of control
same,T/C,[10],165 % of control
CCN(CC)CCCC(C)Nc1c(C)cnc2cc(Cl)ccc12 (stereo not given),T/C,"dose: 50.0 mg/kg/injection, schedule: Q01DX005 (ip), vehicle: saline",98 % of control
same,T/C,"dose: 100.0 mg/kg/injection, schedule: Q01DX005 (ip), vehicle: saline",108 % of control
NC(N)=NCCCSC(=O)C1CCCCC1,T/C,[1],105 % of control
same,T/C,[2],107 % of control
CC(C)[CH2][Sn]1([CH2]C(C)C)[O]CCNCC[O]1,T/C,"dose: 0.78 mg/kg/injection, schedule: Q01DX009 (ip), vehicle: saline",105 % of control
same,T/C,"dose: 1.56 mg/kg/injection, schedule: Q01DX009 (ip), vehicle: saline",109 % of control
same,T/C,"dose: 3.12 mg/kg/injection, schedule: Q01DX009 (ip), vehicle: saline",88 % of control
CCCCCCOCCN1CCN(CCCN2c3ccccc3Sc3ccc(C(F)(F)F)cc32)CC1,T/C,"dose: 3.12 mg/kg/injection, schedule: Q01DX009 (ip), vehicle: saline with Tween-80",100 % of control
O=C(O)CC1(c2ccccc2)CCCCC1,T/C,"dose: 50.0 mg/kg/injection, schedule: Q01DX009 (ip), vehicle: saline with Tween-80",103 % of control
same,T/C,"dose: 100.0 mg/kg/injection, schedule: Q01DX009 (ip), vehicle: saline with Tween-80",100 % of control
same,T/C,"dose: 200.0 mg/kg/injection, schedule: Q01DX009 (ip), vehicle: saline with Tween-80",102 % of control
Cc1ccc(S(=O)(=O)Nc2ccccc2N(CCNCCOS(=O)(=O)c2ccc(C)cc2)S(=O)(=O)c2ccc(C)cc2)cc1,T/C,"dose: 100.0 mg/kg/injection, schedule: Q04DX002 (ip), vehicle: saline with Tween-80",96 % of control
same,T/C,"dose: 200.0 mg/kg/injection, schedule: Q04DX002 (ip), vehicle: saline with Tween-80",98 % of control
same,T/C,"dose: 400.0 mg/kg/injection, schedule: Q04DX002 (ip), vehicle: saline with Tween-80",91 % of control
CC(C)C(NC(=O)[C@@H](C(C)C)N1C(=O)c2ccccc2C1=O)C(=O)O (stereo not given in full),T/C,"dose: 12.5 mg/kg/injection, schedule: Q01DX005 (ip), vehicle: saline with Tween-80",101 % of control
same,T/C,[9],101 % of control
same,T/C,[1],99 % of control and 88 % of control
same,T/C,[11],100 % of control
COC(=O)C1=C(/C=C/C(C)=O)NC(C)=C(C(=O)OC(C)C)C1c1ccccc1Cl (stereo not given),T/C,[3],105 % of control
same,T/C,[4],99 % of control and 108 % of control and 96 % of control
same,T/C,[5],102 % of control and 104 % of control and 113 % of control
same,T/C,[6],108 % of control and 116 % of control
OC1CCC2CC2C1 (stereo not given),T/C,[10],108 % of control
same,T/C,[7],102 % of control
same,T/C,[8],108 % of control
Brc1cc(-c2ccccc2)no1,T/C,"dose: 50.0 mg/kg/injection, schedule: Q01DX009 (ip), vehicle: Klucel (hydroxypropylcellulose) (HPC)",104 % of control
same,T/C,[12],111 % of control
same,T/C,[13],109 % of control
O=c1[nH]c2c([N+](=O)[O-])cc(Cl)cc2nc1/C=C(\O)c1ccccc1,T/C,[14],105 % of control
same,T/C,[15],106 % of control
CC(C)CCC[C@@H](C)[C@H]1CC[C@H]2[C@@H]3CC[C@H]4C[C@H](N)CC[C@]4(C)[C@H]3CC[C@]12C,T/C,"dose: 12.5 mg/kg/injection, schedule: Q01DX005 (ip), vehicle: Klucel (hydroxypropylcellulose) (HPC)",100 % of control
same,T/C,[3],93 % of control
same,T/C,[4],112 % of control and 97 % of control
Cc1ccccc1-[n+]1noc(N)n1,T/C,"dose: 3.13 mg/kg/injection, schedule: Q01DX009 (ip), vehicle: water",101 % of control
same,T/C,"dose: 6.25 mg/kg/injection, schedule: Q01DX009 (ip), vehicle: water",113 % of control
same,T/C,"dose: 12.5 mg/kg/injection, schedule: Q01DX009 (ip), vehicle: water",120 % of control
same,T/C,"dose: 14.7 mg/kg/injection, schedule: Q01DX009 (ip), vehicle: water",106 % of control
N=C(N)SCCC(=O)Nc1ccccc1,T/C,"dose: 100.0 mg/kg/injection, schedule: Q04DX003 (ip), vehicle: saline with Tween-80",106 % of control
same,T/C,"dose: 200.0 mg/kg/injection, schedule: Q04DX003 (ip), vehicle: saline with Tween-80",106 % of control
CC/C=C\C/C=C\C/C=C\CCCCCCCC(=O)O,T/C,"dose: 40.0 mg/kg/injection, schedule: Q01DX009 (ip), vehicle: Klucel (hydroxypropylcellulose) (HPC)",92 % of control
same,T/C,"dose: 80.0 mg/kg/injection, schedule: Q01DX009 (ip), vehicle: Klucel (hydroxypropylcellulose) (HPC)",100 % of control
same,T/C,"dose: 160.0 mg/kg/injection, schedule: Q01DX009 (ip), vehicle: Klucel (hydroxypropylcellulose) (HPC)",98 % of control
same,T/C,"dose: 320.0 mg/kg/injection, schedule: Q01DX009 (ip), vehicle: Klucel (hydroxypropylcellulose) (HPC)",95 % of control
CN(C)CCC(=O)Nc1nc(-c2ccc(Cl)cc2)cs1,T/C,[1],102 % of control
same,T/C,[2],92 % of control
same,T/C,[11],96 % of control
O=C1CCC(C(=O)N(C(=O)NC2CCCCC2)C2CCCCC2)Cc2ccccc21 (stereo not given),T/C,[14],98 % of control
same,T/C,[15],92 % of control
same,T/C,"dose: 240.0 mg/kg/injection, schedule: Q01DX005 (ip), vehicle: Klucel (hydroxypropylcellulose) (HPC)",90 % of control
Cc1ccccc1N=Nc1c(N)ccc2ccccc12,T/C,[12],105 % of control
same,T/C,[13],111 % of control
same,T/C,"dose: 400.0 mg/kg/injection, schedule: Q01DX009 (ip), vehicle: Klucel (hydroxypropylcellulose) (HPC)",109 % of control
